Legend:
[1] = system: wild oat; test: Test B pre/postemergence wild oat; assay type: in vivo, Avena fatua
Outline: (§1)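 Herbicidal effect was estimated by eye on a ten-point control scale after plants spent twelve to sixteen days in a greenhouse following soil or foliar treatment. Foliar sprays targeted plants at one to four leaves; all doses were formulated in a non-phytotoxic solvent with surfactant.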

[2] = system: giant foxtail; test: Test B pre/postemergence giant foxtail; assay type: in vivo, Setaria faberii
Outline: as §1

[3] = system: smallflower flatsedge; test: Test B flood test smallflower flatsedge; assay type: in vivo, Cyperus difformis
Outline: (§2)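 Each value is a visual injury score relative to controls, with 10 meaning complete control and 0 no effect. Evaluation took place twelve to sixteen days after the 2-leaf-stage plants were treated and kept in the greenhouse.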

[4] = system: rice; test: Test B flood test rice; assay type: in vivo, Oryza sativa
Outline: as §2

[5] = system: rape; test: Test B pre/postemergence rape; assay type: in vivo, Brassica napus
Outline: as §1

[6] = system: corn; test: Test B pre/postemergence corn; assay type: in vivo, Zea mays
Outline: as §1

[7] = system: cocklebur; test: Test B pre/postemergence cocklebur; assay type: in vivo, Xanthium strumarium
Outline: as §1

[8] = system: purple nutsedge; test: Test B pre/postemergence purple nutsedge; assay type: in vivo, Cyperus rotundus
Outline: as §1

[9] = system: duck salad; test: Test B flood test duck salad; assay type: in vivo, Heteranthera limosa
Outline: as §2

[10] = system: soybean; test: Test B pre/postemergence soybean; assay type: in vivo, Glycine max
Outline: as §1

[11] = system: wheat; test: Test B pre/postemergence wheat; assay type: in vivo, Triticum aestivum
Outline: as §1

[12] = system: bedstraw; test: Test B pre/postemergence bedstraw; assay type: in vivo, Galium aparine
Outline: as §1

[13] = system: pigweed; test: Test B pre/postemergence pigweed; assay type: in vivo, Amaranthus retroflexus
Outline: as §1

[14] = system: velvetleaf; test: Test B pre/postemergence velvetleaf; assay type: in vivo, Abutilon theophrasti
Outline: as §1

[15] = system: sugar beet; test: Test B pre/postemergence sugar beet; assay type: in vivo, Beta vulgaris
Outline: as §1

[16] = system: surinam grass; test: Test B pre/postemergence surinam grass; assay type: in vivo, Brachiaria decumbens
Outline: as §1

[17] = Preemergence, Rate 62 g/ha, scale of 0 to 10 where 0 is no effect and 10 is complete control
[18] = Preemergence, Rate 250 g/ha, scale of 0 to 10 where 0 is no effect and 10 is complete control
[19] = Preemergence, Rate 500 g/ha, scale of 0 to 10 where 0 is no effect and 10 is complete control
[20] = Rate 125 g/ha, Postemergence, scale of 0 to 10 where 0 is no effect and 10 is complete control
[21] = Rate 250 g/ha, Postemergence, scale of 0 to 10 where 0 is no effect and 10 is complete control
[22] = Rate 500 g/ha, Postemergence, scale 0 to 10, 0 no effect, 10 complete control
[23] = Rate 125 g/ha, Preemergence, scale of 0 to 10 where 0 is no effect and 10 is complete control
[24] = Rate 62 g/ha, headed Pre-emergence (flood test species), scale 0 to 10 (0 no effect, 10 complete control)
[25] = Rate 125 g/ha, Pre-emergence, flood test species, scale 0 to 10 where 0 is no effect and 10 is complete control
[26] = Rate 250 g/ha, Pre-emergence, flood-test species, scale 0 to 10, 0 is no effect, 10 is complete control
[27] = Rate 500 g/ha, Pre-emergence, flood test species, scale 0 to 10 (0 no effect, 10 complete control)
[28] = Rate 62 g/ha, Postemergence, scale of 0 to 10 where 0 is no effect and 10 is complete control
[29] = Rate 62 g/ha, Postemergence, scale 0 to 10, 0 no effect, 10 complete control

Cc1ccccc1-n1c(=O)on(C(=O)N(c2cccc(F)c2)C(C)C)c1=O [Compound 269]
Wild oats plant response rating [1, 17]: 0
Wild oats plant response rating [1, 18]: 2
Plant response rating, Wild oats [1, 19]: 4
Wild oats plant response rating [1, 20]: 0
Plant response rating, Wild oats [1, 21]: 0
Wild oats plant response rating [1, 22]: 3
Giant foxtail plant response rating [2, 17]: 3
Giant foxtail plant response rating [2, 18]: 10
Giant foxtail plant response rating [2, 20]: 0
Giant foxtail plant response rating [2, 23]: 6
Plant response rating, Giant foxtail [2, 21]: 0
Giant foxtail plant response rating [2, 22]: 2
S. Flatsedge plant response rating [3, 24]: 0
S. Flatsedge plant response rating [3, 25]: 0
S. Flatsedge plant response rating [3, 26]: 0
S. Flatsedge plant response rating [3, 27]: 0
Rice plant response rating [4, 24]: 0
Rice plant response rating [4, 25]: 0
Rice plant response rating [4, 26]: 0
Rice plant response rating [4, 27]: 0
Rape plant response rating [5, 17]: 0
Rape plant response rating [5, 18]: 0
Plant response rating, Rape [5, 19]: 0
Rape plant response rating [5, 20]: 0
Rape plant response rating [5, 23]: 0
Plant response rating, Rape [5, 21]: 0
Rape plant response rating [5, 22]: 0
Corn plant response rating [6, 17]: 0
Corn plant response rating [6, 18]: 0
Plant response rating, Corn [6, 19]: 0
Corn plant response rating [6, 28]: 0
Corn plant response rating [6, 20]: 0
Corn plant response rating [6, 23]: 0
Plant response rating, Corn [6, 21]: 0
Corn plant response rating [6, 22]: 0
Cocklebur plant response rating [7, 17]: 0
Cocklebur plant response rating [7, 18]: 0
Plant response rating, Cocklebur [7, 19]: 0
Cocklebur plant response rating [7, 28]: 0
Plant response rating, Cocklebur [7, 21]: 1
Cocklebur plant response rating [7, 22]: 2
Nutsedge plant response rating [8, 17]: 0
Nutsedge plant response rating [8, 20]: 0
Nutsedge plant response rating [8, 23]: 0
Plant response rating, Nutsedge [8, 21]: 0
Nutsedge plant response rating [8, 22]: 0
Ducksalad plant response rating [9, 24]: 0
Ducksalad plant response rating [9, 25]: 0
Ducksalad plant response rating [9, 26]: 0
Ducksalad plant response rating [9, 27]: 0
Soybean plant response rating [10, 17]: 0
Soybean plant response rating [10, 18]: 0
Plant response rating, Soybean [10, 19]: 4
Soybean plant response rating [10, 20]: 1
Soybean plant response rating [10, 23]: 0
Plant response rating, Soybean [10, 21]: 3
Soybean plant response rating [10, 22]: 3
Wheat plant response rating [11, 17]: 0
Wheat plant response rating [11, 18]: 0
Plant response rating, Wheat [11, 19]: 0
Wheat plant response rating [11, 20]: 0
Wheat plant response rating [11, 23]: 0
Plant response rating, Wheat [11, 21]: 2
Wheat plant response rating [11, 22]: 4
Bedstraw plant response rating [12, 17]: 0
Bedstraw plant response rating [12, 18]: 0
Plant response rating, Bedstraw [12, 19]: 0
Bedstraw plant response rating [12, 20]: 4
Bedstraw plant response rating [12, 23]: 0
Plant response rating, Bedstraw [12, 21]: 4
Bedstraw plant response rating [12, 22]: 7
Redroot pigweed plant response rating [13, 17]: 0
Redroot pigweed plant response rating [13, 18]: 4
Plant response rating, Redroot pigweed [13, 19]: 4
Redroot pigweed plant response rating [13, 20]: 4
Redroot pigweed plant response rating [13, 23]: 0
Plant response rating, Redroot pigweed [13, 21]: 5
Redroot pigweed plant response rating [13, 22]: 6
Velvetleaf plant response rating [14, 17]: 0
Velvetleaf plant response rating [14, 18]: 0
Plant response rating, Velvetleaf [14, 19]: 0
Velvetleaf plant response rating [14, 20]: 0
Velvetleaf plant response rating [14, 23]: 0
Plant response rating, Velvetleaf [14, 21]: 3
Velvetleaf plant response rating [14, 22]: 3
Sugarbeets plant response rating [15, 17]: 0
Sugarbeets plant response rating [15, 18]: 0
Plant response rating, Sugarbeets [15, 19]: 4
Sugarbeets plant response rating [15, 20]: 0
Sugarbeets plant response rating [15, 23]: 0
Plant response rating, Sugarbeets [15, 21]: 0
Sugarbeets plant response rating [15, 22]: 0
B. signalgrass plant response rating [16, 17]: 0
B. signalgrass plant response rating [16, 18]: 6
Plant response rating, B. signalgrass [16, 19]: 7
B. signalgrass plant response rating [16, 28]: 0
B. signalgrass plant response rating [16, 20]: 0
B. signalgrass plant response rating [16, 23]: 6
Plant response rating, B. signalgrass [16, 21]: 0
B. signalgrass plant response rating [16, 22]: 0

CC(C)N(C(=O)n1oc(=O)n(C2CCCC2)c1=O)c1ccc(Cl)cc1 [Compound 282]
Wild oats plant response rating [1, 17]: 0
Wild oats plant response rating [1, 18]: 5
Plant response rating, Wild oats [1, 19]: 7
Wild oats plant response rating [1, 29]: 0
Wild oats plant response rating [1, 20]: 0
Plant response rating, Wild oats [1, 21]: 0
Wild oats plant response rating [1, 22]: 0
Giant foxtail plant response rating [2, 17]: 8
Giant foxtail plant response rating [2, 18]: 10
Plant response rating, Giant foxtail [2, 19]: 10
Giant foxtail plant response rating [2, 29]: 0
Giant foxtail plant response rating [2, 20]: 0
Giant foxtail plant response rating [2, 23]: 8
Plant response rating, Giant foxtail [2, 21]: 0
Giant foxtail plant response rating [2, 22]: 2
S. Flatsedge plant response rating [3, 24]: 0
S. Flatsedge plant response rating [3, 25]: 0
S. Flatsedge plant response rating [3, 26]: 2
S. Flatsedge plant response rating [3, 27]: 4
Rice plant response rating [4, 24]: 0
Rice plant response rating [4, 25]: 0
Rice plant response rating [4, 26]: 0
Rice plant response rating [4, 27]: 0
Rape plant response rating [5, 17]: 0
Rape plant response rating [5, 18]: 7
Plant response rating, Rape [5, 19]: 2
Rape plant response rating [5, 29]: 2
Rape plant response rating [5, 20]: 3
Rape plant response rating [5, 23]: 0
Plant response rating, Rape [5, 21]: 6
Rape plant response rating [5, 22]: 8
Corn plant response rating [6, 17]: 0
Corn plant response rating [6, 18]: 0
Plant response rating, Corn [6, 19]: 0
Corn plant response rating [6, 29]: 0
Corn plant response rating [6, 20]: 0
Corn plant response rating [6, 23]: 0
Plant response rating, Corn [6, 21]: 0
Corn plant response rating [6, 22]: 0
Plant response rating, Cocklebur [7, 19]: 0
Cocklebur plant response rating [7, 29]: 0
Cocklebur plant response rating [7, 20]: 0
Cocklebur plant response rating [7, 23]: 0
Plant response rating, Cocklebur [7, 21]: 2
Cocklebur plant response rating [7, 22]: 2
Nutsedge plant response rating [8, 17]: 0
Nutsedge plant response rating [8, 18]: 0
Nutsedge plant response rating [8, 29]: 0
Nutsedge plant response rating [8, 20]: 0
Nutsedge plant response rating [8, 23]: 0
Plant response rating, Nutsedge [8, 21]: 0
Nutsedge plant response rating [8, 22]: 0
Ducksalad plant response rating [9, 24]: 0
Ducksalad plant response rating [9, 25]: 0
Ducksalad plant response rating [9, 26]: 0
Ducksalad plant response rating [9, 27]: 0
Soybean plant response rating [10, 17]: 0
Soybean plant response rating [10, 18]: 0
Plant response rating, Soybean [10, 19]: 0
Soybean plant response rating [10, 29]: 3
Soybean plant response rating [10, 20]: 3
Soybean plant response rating [10, 23]: 0
Plant response rating, Soybean [10, 21]: 4
Soybean plant response rating [10, 22]: 4
Wheat plant response rating [11, 17]: 0
Wheat plant response rating [11, 18]: 0
Plant response rating, Wheat [11, 19]: 0
Wheat plant response rating [11, 29]: 0
Wheat plant response rating [11, 20]: 0
Wheat plant response rating [11, 23]: 0
Plant response rating, Wheat [11, 21]: 0
Wheat plant response rating [11, 22]: 0
Bedstraw plant response rating [12, 17]: 0
Bedstraw plant response rating [12, 18]: 2
Plant response rating, Bedstraw [12, 19]: 2
Bedstraw plant response rating [12, 29]: 5
Bedstraw plant response rating [12, 20]: 5
Plant response rating, Bedstraw [12, 21]: 7
Bedstraw plant response rating [12, 22]: 8
Redroot pigweed plant response rating [13, 17]: 1
Redroot pigweed plant response rating [13, 18]: 7
Plant response rating, Redroot pigweed [13, 19]: 9
Redroot pigweed plant response rating [13, 29]: 4
Redroot pigweed plant response rating [13, 20]: 6
Redroot pigweed plant response rating [13, 23]: 6
Plant response rating, Redroot pigweed [13, 21]: 7
Redroot pigweed plant response rating [13, 22]: 8
Velvetleaf plant response rating [14, 17]: 0
Velvetleaf plant response rating [14, 18]: 0
Plant response rating, Velvetleaf [14, 19]: 0
Velvetleaf plant response rating [14, 29]: 0
Velvetleaf plant response rating [14, 20]: 0
Velvetleaf plant response rating [14, 23]: 0
Plant response rating, Velvetleaf [14, 21]: 3
Velvetleaf plant response rating [14, 22]: 3
Sugarbeets plant response rating [15, 17]: 0
Sugarbeets plant response rating [15, 18]: 0
Plant response rating, Sugarbeets [15, 19]: 3
Sugarbeets plant response rating [15, 29]: 2
Sugarbeets plant response rating [15, 20]: 6
Sugarbeets plant response rating [15, 23]: 0
Plant response rating, Sugarbeets [15, 21]: 7
Sugarbeets plant response rating [15, 22]: 7
B. signalgrass plant response rating [16, 17]: 0
B. signalgrass plant response rating [16, 18]: 2
Plant response rating, B. signalgrass [16, 19]: 7
B. signalgrass plant response rating [16, 29]: 0
B. signalgrass plant response rating [16, 20]: 0
B. signalgrass plant response rating [16, 23]: 1
Plant response rating, B. signalgrass [16, 21]: 0
B. signalgrass plant response rating [16, 22]: 2

— patent US6737383B1, “Herbicidal oxadiazolidines” (priority 1999, dated 2004)
